Reference: US5071835A, “Ribonucleotide reductase inhibitors” (Bio-Mega Inc., priority 1989, dated 1991)
pIC50: −log10 of the molar value. Non-standard residues stand in square brackets, D forms with d. Residues, ends and D or L forms follow the SMILES beside them. No end group written: not given here. hPhe = N[C@@H](CCc1ccccc1)C(=O)O; NMeD = CN[C@@H](CC(=O)O)C(=O)O; NMeL = CN[C@@H](CC(C)C)C(=O)O; NMeV = CN[C@H](C(=O)O)C(C)C

Target: T1, human ribonucleotide reductase (hRR) (Homo sapiens, UniProt P23921)
T1 construct: Preparation of cell extract containing human ribonucleotide reductase (hRR); endogenous in cells; host or cells: HeLa cells (ATCC CCL 2.2); extract cleared with streptomycin sulphate, 50% ammonium sulphate cut, diafiltered
T1 sequence (P23921 1-792): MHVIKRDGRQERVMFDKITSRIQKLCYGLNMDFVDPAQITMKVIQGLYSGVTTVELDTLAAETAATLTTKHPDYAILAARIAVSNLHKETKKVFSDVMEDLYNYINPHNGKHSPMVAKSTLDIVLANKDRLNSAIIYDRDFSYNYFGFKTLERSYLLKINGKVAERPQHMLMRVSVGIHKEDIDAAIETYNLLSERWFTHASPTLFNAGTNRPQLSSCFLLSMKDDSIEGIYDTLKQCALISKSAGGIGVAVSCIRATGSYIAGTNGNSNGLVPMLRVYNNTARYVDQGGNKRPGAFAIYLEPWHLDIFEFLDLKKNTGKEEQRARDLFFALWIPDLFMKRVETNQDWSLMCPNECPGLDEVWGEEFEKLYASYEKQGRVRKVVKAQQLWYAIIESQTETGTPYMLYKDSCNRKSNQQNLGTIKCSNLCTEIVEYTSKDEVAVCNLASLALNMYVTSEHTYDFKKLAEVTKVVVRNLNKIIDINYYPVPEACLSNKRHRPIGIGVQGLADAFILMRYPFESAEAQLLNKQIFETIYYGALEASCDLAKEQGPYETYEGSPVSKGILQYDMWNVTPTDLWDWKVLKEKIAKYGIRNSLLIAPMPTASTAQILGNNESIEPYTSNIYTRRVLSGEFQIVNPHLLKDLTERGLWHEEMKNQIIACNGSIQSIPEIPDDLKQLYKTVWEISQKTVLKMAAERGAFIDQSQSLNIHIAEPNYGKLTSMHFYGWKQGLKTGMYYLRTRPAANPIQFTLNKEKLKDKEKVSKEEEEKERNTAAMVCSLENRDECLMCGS
Test: Inhibition of Human Ribonucleotide Reductase Assay
Assay type: biochemical
Conditions: Hela cell extract; conversion of (14C)CDP to (14C)dCDP; text of Example 3; read-out: IC50
Description: Inhibition of Human Ribonucleotide Reductase Assay
(a) Cell line: Hela cells (ATCC CCL 2.2), human epitheloid carcinoma, cervix.
(b) Cell culture: Cells were incubated in a medium consisting of Iscove's Modified Dulbecco Medium, pH 7.2-7.4 (Gibco Canada Inc., Burlington, ON, Canada) supplemented with 10% by volume of fetal calf serum, heat inactivated (Gibco Canada Inc.), 1 millimolar (mM) of sodium pyruvate, 100 units/ml of penicillin G, 100 μg/ml of streptomycin and 2 mM of L-glutamine. The incubation was done in a 1 l spinner flask at 37° C. under a mixture of 5% CO2 in air. Cell-containing media (75% of culture volume) was withdrawn semicontinuously at 24-48 h intervals. Fresh media was added each time to replace withdrawn media. Final cell density at harvest was 1-2×10^6 cells/ml.
(c) Preparation of cell extract containing human ribonucleotide reductase (hRR)
The harvested culture media obtained above was subjected to low speed centrifugation. The resulting cell pellet was processed according to the following steps. (All steps were performed at 4° C. unless noted otherwise.) […]
(a) Standard Reaction Mixture […]
The activity of RR was quantitated by following the conversion of radiolabeled cytidine diphosphate to radiolabeled deoxycytidine diphosphate, i.e. (^14 C)CDP to (^14 C)dCDP. The amount of cell extract utilized in the assay was that which gave a linear response between enzyme concentration and CDP conversion (ca. 200 μg of protein per assay).
After addition of the cell extract, the assay mixture was incubated at 37° C. for 30 min. The reaction was stopped by immersing the vessel containing the assay mixture in boiling water for 4 min. Nucleotides in the supernatant were then converted to nucleosides by the addition of excess Crotalus adamenteus snake venom (ca. 20 μl of a preparation of 40 mg/ml of the venom in an aqueous solution of 14 mM tris(hydroxymethyl)aminomethane (pH 8.8) and 46.5 mM MgCl2), followed by incubating the resulting mixture for 60 min at 37° C. The enzymatic reaction was stopped by immersing the vessel containing the reaction mixture in boiling waster for 6 min. Thereafter, the mixture is centrifuged at 10,000 rpm on a clinical centrifuge for 5 min.
The resulting free nucleosides, cytidine (C) and deoxycytidine (dC), in the supernatant were separated by thin layer chromatography on polyethyleneimine-cellulose plates pretreated with boric acid. Elution of 5 μl samples was accomplished using a solution of ethanol/20 mM aqueous ammonium formate (1:1), pH 4.7. Quantitation of radiolabel migrating as C and dC was carried out using radioanalytical imaging equipment (AMBIS Systems Inc., San Diego, CA, USA). substrate conversion was calculated as: [formula]
A unit of ribonucleotide reductase activity is defined as that amount which reduces one nmole of CDP/minute under the conditions described above. Activity was calculated from substrate conversion using the following relationship: [formula]
The conversion factor for the Hela assay was 0.108. Specific activity was expressed as units/mg of protein in the incubation mixture.
The peptides of formula 1 were tested at a minimum of three concentrations. IC50 's were estimated from graphs plotting the results for each peptide, the IC50 being the concentration of the peptide in micromoles (μM) producing 50% of the maximal inhibition of the enzyme.

With “Ac-FTLDADF [Example 2, AcPhe-Thr-Leu-Asp-Ala-Asp-Phe-OH]” as the molecule, how does the pIC50 read?
The pIC50 was 4.42.

Same assay, conditions: Hela cell extract; table of Example 4; read-out: IC50

“Ac-NSFTLDADF-OH [Ac--Asn--Ser--Phe--Thr--Leu--Asp--Ala--Asp--Phe--OH]” was tested. Which pIC50 did it give?
Its pIC50 is 4.48.

“Ac-TENSFTLDADF [AcThr--Glu--Asn--Ser--Phe--Thr--Leu--Asp--Ala--Asp--Phe--OH]” was tested. Which pIC50 did it give?
Its pIC50 is 4.08.

“H-NSTENSFTLDADF-OH [H--Asn--Ser--Thr--Glu--Asn--Ser--Phe--Thr--Leu--Asp--Ala--Asp--Phe--OH]” was tested. Which pIC50 did it give?
Its pIC50 is 4.21.

With “H-TENSFTLDADF-OH [H--Thr--Glu--Asn--Ser--Phe--Thr--Leu--Asp--Ala--Asp--Phe--OH]” as the molecule, how does the pIC50 read?
The pIC50 was 4.02.

“H-VISNSTENSFTLDADF-OH [H--Val--Ile--Ser--Asn--Ser--Thr--Glu--Asn--Ser--Phe--Thr--Leu--Asp--Ala--Asp--Phe--OH]” was tested. Which pIC50 did it give?
Its pIC50 is 4.31.

Same assay, conditions: inhibition of human RR assay; list after the table; unit μM; read-out: IC50 (shown in parenthesis)

How did the IC50 turn out when CC(=O)N[C@@H](Cc1ccccc1)C(=O)N(C)[C@H](C(=O)N[C@@H](CC(C)C)C(=O)N[C@@H](CC(=O)O)C(=O)N[C@@H](C)C(=O)N[C@@H](CC(=O)O)C(=O)N[C@@H](Cc1ccccc1)C(=O)O)C(C)C [AcPhe-N-Me-Val-Leu-Asp-Ala-Asp-Phe-OH] (Ac-F[NMeV]LDADF-OH) was run?
The IC50 was 48 µM.

Which IC50 does the source give for CC(=O)N[C@@H](Cc1ccccc1)C(=O)N[C@H](C(=O)N[C@@H](CC(C)C)C(=O)N[C@@H](CC(=O)N(C)C)C(=O)N[C@@H](C)C(=O)N[C@@H](CC(=O)O)C(=O)N[C@@H](Cc1ccccc1)C(=O)O)[C@@H](C)O [AcPhe-Thr-Leu-Asp(NMe2)-Ala-Asp-Phe-OH] (Ac-FTLD(NMe2)ADF-OH) here?
Its IC50 is 58 µM.

For CC(=O)N[C@@H](Cc1ccccc1)C(=O)N[C@H](C(=O)N[C@@H](CC(C)C)C(=O)N[C@@H](CC(=O)O)C(=O)N[C@@H](C)C(=O)N[C@@H](CC(=O)O)C(=O)N[C@@H](CCc1ccccc1)C(=O)O)[C@@H](C)O [AcPhe-Thr-Leu-Asp-Ala-Asp-homoPhe-OH] (Ac-FTLDAD[hPhe]-OH), which IC50 is on record?
Its IC50 is 58 µM.

How did the IC50 turn out when CC(=O)N[C@@H](Cc1ccccc1)C(=O)N[C@H](C(=O)N[C@@H](CC(C)C)C(=O)N[C@@H](CC(=O)O)C(=O)N[C@@H](C)C(=O)N[C@H](CC(=O)O)C(=O)N[C@@H](Cc1ccccc1)C(=O)O)[C@@H](C)O [AcPhe-Thr-Leu-Asp-Ala-D-Asp-Phe-OH] (Ac-FTLDA[dD]F-OH) was run?
Its IC50 is 280 µM.

With CC(=O)N[C@@H](Cc1ccccc1)C(=O)N[C@H](C(=O)N[C@@H](CC(C)C)C(=O)N[C@@H](CC(=O)O)C(=O)N[C@@H](C)C(=O)N(C)[C@@H](CC(=O)O)C(=O)N[C@@H](Cc1ccccc1)C(=O)O)[C@@H](C)O [AcPhe-Thr-Leu-Asp-Ala-N-Me-Asp-Phe-OH] (Ac-FTLDA[NMeD]F-OH) as the molecule, how does the IC50 read?
Its IC50 is 46 µM.

For CC(=O)N[C@@H](Cc1ccccc1)C(=O)N[C@H](C(=O)N[C@@H](CC(C)C)C(=O)N[C@@H](CC(=O)O)C(=O)N[C@H](C)C(=O)N[C@@H](CC(=O)O)C(=O)N[C@@H](Cc1ccccc1)C(=O)O)[C@@H](C)O [AcPhe-Thr-Leu-Asp-D-Ala-Asp-Phe-OH] (Ac-FTLD[dA]DF-OH), which IC50 is on record?
Its IC50 is 460 µM.

For CC(=O)N[C@@H](Cc1ccccc1)C(=O)N[C@H](C(=O)N[C@@H](CC(C)C)C(=O)N[C@H](CC(=O)O)C(=O)N[C@@H](C)C(=O)N[C@@H](CC(=O)O)C(=O)N[C@@H](Cc1ccccc1)C(=O)O)[C@@H](C)O [AcPhe-Thr-Leu-D-Asp-Ala-Asp-Phe-OH] (Ac-FTL[dD]ADF-OH), which IC50 is on record?
The IC50 was 200 µM.

CC(=O)N[C@@H](Cc1ccccc1)C(=O)N[C@H](C(=O)N(C)[C@@H](CC(C)C)C(=O)N[C@@H](CC(=O)O)C(=O)N[C@@H](C)C(=O)N[C@@H](CC(=O)O)C(=O)N[C@@H](Cc1ccccc1)C(=O)O)[C@@H](C)O [AcPhe-Thr-N-Me-Leu-Asp-Ala-Asp-Phe-OH] (Ac-FT[NMeL]DADF-OH) was tested. Which IC50 did it give?
The IC50 was 23 µM.

Which IC50 does the source give for “Ac-FTFNEDF [AcPhe-Thr-Phe-Asn-Glu-Asp-Phe-OH]” here?
The IC50 was 150 µM.

How did the IC50 turn out when “Ac-FTLDEDF [AcPhe-Thr-Leu-Asp-Glu-Asp-Phe-OH]” was run?
Its IC50 is 28 µM.

Which IC50 does the source give for “Ac-FTLDVDF [AcPhe-Thr-Leu-Asp-Val-Asp-Phe-OH]” here?
The IC50 was 39 µM.

Which IC50 does the source give for “Ac-FTLFADF [AcPhe-Thr-Leu-Phe-Ala-Asp-Phe-OH]” here?
Its IC50 is 73 µM.

For “Ac-FTLGADF [AcPhe-Thr-Leu-Gly-Ala-Asp-Phe-OH]”, which IC50 is on record?
Its IC50 is 150 µM.

Which IC50 does the source give for “Ac-FTLNADF [AcPhe-Thr-Leu-Asn-Ala-Asp-Phe-OH]” here?
The IC50 was 31 µM.

How did the IC50 turn out when “Ac-FTLQADF [AcPhe-Thr-Leu-Gln-Ala-Asp-Phe-OH]” was run?
The IC50 was 120 µM.

How did the IC50 turn out when “H-PTENSFTLDADF-OH [H-Pro-Thr-Glu-Asn-Ser-Phe-Thr-Leu-Asp-Ala-Asp-Phe-OH]” was run?
Its IC50 is 41 µM.

With “H-SPTENSFTLDADF-OH [H-Ser-Pro-Thr-Glu-Asn-Ser-Phe-Thr-Leu-Asp-Ala-Asp-Phe-OH]” as the molecule, how does the IC50 read?
Its IC50 is 29 µM.

How did the IC50 turn out when “H-SSPTENSFTLDADF-OH [H-Ser-Ser-Pro-Thr-Glu-Asn-Ser-Phe-Thr-Leu-Asp-Ala-Asp-Phe-OH]” was run?
The IC50 was 26 µM.
